In patent US9040663B2, “Melanocortin receptor-specific peptides” (AstraZeneca AB, priority 2009, dated 2015):
Like-named read-outs stand apart in the source and are kept apart here. Positions of bridges follow the written chain, without caps; N, C: chain ends. Non-standard residues stand in square brackets, D forms with d. Residues, ends and D or L forms follow the SMILES beside them. dPhe(4-CN) = N#Cc1ccc(C[C@@H](N)C(=O)O)cc1

Key:
hMC4-R [1] = target: T1, hMC4-R (Homo sapiens (Human), UniProt P32245); assay: Competitive inhibition binding assay using [I125]-NDP-α-MSH, hMC4-R; settings: membranes of HEK-293 cells expressing recombinant hMC4-R, read-out: MC4-R Ki
T1 sequence (P32245 whole entry): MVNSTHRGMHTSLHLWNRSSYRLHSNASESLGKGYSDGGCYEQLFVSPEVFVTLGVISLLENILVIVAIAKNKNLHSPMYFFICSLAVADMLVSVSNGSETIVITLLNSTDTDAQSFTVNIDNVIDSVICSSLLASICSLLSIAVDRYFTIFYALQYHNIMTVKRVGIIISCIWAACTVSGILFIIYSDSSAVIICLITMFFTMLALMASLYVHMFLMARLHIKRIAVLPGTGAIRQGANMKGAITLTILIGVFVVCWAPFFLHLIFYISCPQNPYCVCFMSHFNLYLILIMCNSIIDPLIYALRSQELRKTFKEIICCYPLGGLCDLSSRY

hMC4-R [2] = target: T1, hMC4-R; assay: High and low density hMC4-R functional assay (cAMP, HEK293-T-REx-MC4-R cells); assay type: cell-based; settings: for Emax: NDP-α-MSH = 100%, read-out: Intrinsic Activity (%)
[3] = 0.1 ng/mL Doxycycline (low density hMC4-R system)
[4] = 10 ng/mL Doxycycline (high density hMC4-R system)

Ki (hMC4-R [1]) | EC50 (hMC4-R [2]; [3]) | Emax (hMC4-R [2]; [3]) | EC50 (hMC4-R [2]; [4]) | Emax (hMC4-R [2]; [4]) | Compound
8 nM | 3 nM | 34% |  | 80% | CC(=O)N[C@@H](CCCNC(=N)N)C(=O)N[C@H]1CCCNC(=O)CC[C@@H](C(N)=O)NC(=O)[C@H](Cc2c[nH]c3ccccc23)NC(=O)[C@H](CCCNC(=N)N)NC(=O)[C@@H](Cc2cc(F)cc(F)c2)NC(=O)[C@H](CC(N)=O)NC1=O [Example 77, Ac-Arg-cyclo(Orn-Asn-D-Phe(3,5-diF)-Arg-Trp-Glu)-NH2]
0.145 nM | 0.165 nM | 16% | 0.2 nM | 90% | CC(=O)N[C@@H](CCCNC(=N)N)C(=O)N[C@H]1CCC(=O)NCCC[C@@H](C(N)=O)NC(=O)[C@H](Cc2c[nH]c3ccccc23)NC(=O)[C@H](CCCNC(=N)N)NC(=O)[C@@H](Cc2ccc(C)cc2)NC(=O)[C@H](CCN)NC1=O [Example 15, Ac-Arg-cyclo(Glu-Dab-D-Phe(4-Me)-Arg-Trp-Orn)-NH2]
5 nM | 4 nM | 31% |  | 96% | CC(=O)N[C@@H](CCCNC(=N)N)C(=O)N[C@H]1CC(=O)NCCCC[C@@H](C(N)=O)NC(=O)[C@H](Cc2c[nH]c3ccccc23)NC(=O)[C@H](CCCNC(=N)N)NC(=O)[C@@H](Cc2ccc(C#N)cc2)NC(=O)[C@H](CCC(N)=O)NC1=O [Example 90, Ac-Arg-cyclo(Asp-Gln-D-Phe(4-CN)-Arg-Trp-Lys)-NH2]
48 nM |  | 6% |  | 87% | CC(=O)N[C@@H](CCCNC(=N)N)C(=O)N[C@H]1CC(=O)NCCCC[C@@H](C(N)=O)NC(=O)[C@H](Cc2c[nH]c3ccccc23)NC(=O)[C@H](CCCNC(=N)N)NC(=O)[C@@H](Cc2ccc(C#N)cc2)NC(=O)[C@H](CC(N)=O)NC1=O [Example 89, Ac-Arg-cyclo(Asp-Asn-D-Phe(4-CN)-Arg-Trp-Lys)-NH2] (Ac-RDN[dPhe(4-CN)]RWK-NH2; lactam 2-7)
75 nM | 48 nM | 71% | 0.55 nM | 87% | CC(=O)N[C@@H](CCCNC(=N)N)C(=O)N[C@H]1CCC(=O)NCCC[C@@H](C(N)=O)NC(=O)[C@H](Cc2c[nH]c3ccccc23)NC(=O)[C@H](CCCNC(=N)N)NC(=O)[C@@H](Cc2ccc(O)cc2)NC(=O)[C@H](CCN)NC1=O [Example 8, Ac-Arg-cyclo(Glu-Dab-D-Tyr-Arg-Trp-Orn)-NH2]
3 nM | 0.4 nM | 64% | 0.1 nM | 91% | CC(=O)N[C@@H](CCCNC(=N)N)C(=O)N[C@H]1CCCNC(=O)CC[C@@H](C(N)=O)NC(=O)[C@H](Cc2c[nH]c3ccccc23)NC(=O)[C@H](CCCNC(=N)N)NC(=O)[C@@H](Cc2ccc(F)cc2)NC(=O)[C@H](CC(N)=O)NC1=O [Example 70, Ac-Arg-cyclo(Orn-Asn-D-Phe(4-F)-Arg-Trp-Glu)-NH2]
0.45 nM | 0.7 nM | 15% | 0.45 nM | 99% | CC(=O)N[C@@H](CCCNC(=N)N)C(=O)N[C@H]1CCC(=O)NCCC[C@@H](C(N)=O)NC(=O)[C@H](Cc2c[nH]c3ccccc23)NC(=O)[C@H](CCCNC(=N)N)NC(=O)[C@@H](Cc2ccc([N+](=O)[O-])cc2)NC(=O)[C@H](CCN)NC1=O [Example 24, Ac-Arg-cyclo(Glu-Dab-D-Phe(4-NO2)-Arg-Trp-Orn)-NH2]

More lines, now with the values behind:

Compound | Ki (hMC4-R [1]) | EC50 (hMC4-R [2]; [3]) | Emax (hMC4-R [2]; [3]) | EC50 (hMC4-R [2]; [4]) | Emax (hMC4-R [2]; [4])
CC(=O)N[C@@H](CCCNC(=N)N)C(=O)N[C@H]1CCC(=O)NCCC[C@@H](C(N)=O)NC(=O)[C@H](Cc2c[nH]c3ccccc23)NC(=O)[C@H](CCCNC(=N)N)NC(=O)[C@@H](Cc2cccc(Cl)c2)NC(=O)[C@H](CCN)NC1=O [Example 2, Ac-Arg-cyclo(Glu-Dab-D-Phe(3-Cl)-Arg-Trp-Orn)-NH2] | 0.75 nM | 0.56 nM | 36% | 0.095 nM | 99%
CC(=O)N[C@@H](CCCNC(=N)N)C(=O)N[C@H]1CCC(=O)NCCC[C@@H](C(N)=O)NC(=O)[C@H](Cc2c[nH]c3ccccc23)NC(=O)[C@H](CCCNC(=N)N)NC(=O)[C@@H](Cc2ccccc2C#N)NC(=O)[C@H](CCN)NC1=O [Example 12, Ac-Arg-cyclo(Glu-Dab-D-Phe(2-CN)-Arg-Trp-Orn)-NH2] | 45 nM | 34 nM | 64% | 0.5 nM | 97%
CC(=O)N[C@@H](CCCNC(=N)N)C(=O)N[C@H]1CCC(=O)NCCC[C@@H](C(N)=O)NC(=O)[C@H](Cc2c[nH]c3ccccc23)NC(=O)[C@H](CCCNC(=N)N)NC(=O)[C@@H](Cc2cccc(Cl)c2)NC(=O)[C@H](CCCNC(N)=O)NC1=O [Example 99, Ac-Arg-cyclo(Glu-Arg-D-Phe(3-Cl)-Arg-Trp-Orn)-NH2] | 0.5 nM | 0.7 nM | 32% | 0.14 nM | 94%
CC(=O)N[C@@H](CCCNC(=N)N)C(=O)N[C@H]1CCC(=O)NCCC[C@@H](C(N)=O)NC(=O)[C@H](Cc2c[nH]c3ccccc23)NC(=O)[C@H](CCCNC(=N)N)NC(=O)[C@@H](Cc2cc(F)c(F)c(F)c2)NC(=O)[C@H](CC(N)=O)NC1=O [Example 95, Ac-Arg-cyclo(Glu-Asn-D-Phe(3,4,5-triF)-Arg-Trp-Orn)-NH2] | 3 nM | 1 nM | 42% | 0.125 nM | 100%
CC(=O)N[C@@H](CCCNC(=N)N)C(=O)N[C@H]1CCC(=O)NCCC[C@@H](C(N)=O)NC(=O)[C@H](Cc2c[nH]c3ccccc23)NC(=O)[C@H](CCCNC(=N)N)NC(=O)[C@@H](Cc2ccccc2C)NC(=O)[C@H](CCN)NC1=O [Example 18, Ac-Arg-cyclo(Glu-Dab-D-Phe(2-Me)-Arg-Trp-Orn)-NH2] | 0.5 nM | 0.14 nM | 83% | 0.085 nM | 97%
COc1ccc(C[C@H]2NC(=O)[C@H](CCN)NC(=O)[C@@H](NC(=O)[C@H](CCCNC(=N)N)NC(C)=O)CCC(=O)NCCC[C@@H](C(N)=O)NC(=O)[C@H](Cc3c[nH]c4ccccc34)NC(=O)[C@H](CCCNC(=N)N)NC2=O)cc1OC [Example 25, Ac-Arg-cyclo(Glu-Dab-D-Phe(3,4-diOMe)-Arg-Trp-Orn)-NH2] | 35 nM | 75 nM | 23% | 2 nM | 94%
CC(=O)N[C@@H](CCCNC(=N)N)C(=O)N[C@H]1CC(=O)NCCCC[C@@H](C(N)=O)NC(=O)[C@H](Cc2c[nH]c3ccccc23)NC(=O)[C@H](CCCNC(=N)N)NC(=O)[C@@H](Cc2ccc(F)cc2)NC(=O)[C@@H]2CCCN2C1=O [Example 103, Ac-Arg-cyclo(Asp-Pro-D-Phe(4-F)-Arg-Trp-Lys)-NH2] | 4 nM | 1 nM | 32% | 0.13 nM | 100%
CC(=O)N[C@@H](CCCNC(=N)N)C(=O)N[C@H]1CCC(=O)NCCC[C@@H](C(N)=O)NC(=O)[C@H](Cc2c[nH]c3ccccc23)NC(=O)[C@H](CCCNC(=N)N)NC(=O)[C@@H](Cc2ccccc2F)NC(=O)[C@H](CCN)NC1=O [Example 9, Ac-Arg-cyclo(Glu-Dab-D-Phe(2-F)-Arg-Trp-Orn)-NH2] | 0.7 nM | 0.09 nM | 91% | 0.035 nM | 89%
CC(=O)N[C@@H](CCCNC(=N)N)C(=O)N[C@H]1CCC(=O)NCCC[C@@H](C(N)=O)NC(=O)[C@H](Cc2c[nH]c3ccccc23)NC(=O)[C@H](CCCNC(=N)N)NC(=O)[C@@H](Cc2cc(F)c(F)c(F)c2)NC(=O)[C@H](CCN)NC1=O [Example 27, Ac-Arg-cyclo(Glu-Dab-D-Phe(3,4,5-triF)-Arg-Trp-Orn)-NH2] | 0.667 nM | 0.7 nM | 37% | 0.33 nM | 97%
CC(=O)N[C@@H](CCCNC(=N)N)C(=O)N[C@H]1CCC(=O)NCCC[C@@H](C(N)=O)NC(=O)[C@H](Cc2c[nH]c3ccccc23)NC(=O)[C@H](CCCNC(=N)N)NC(=O)[C@@H](Cc2cccc(C(F)(F)F)c2)NC(=O)[C@H](CCN)NC1=O [Example 14, Ac-Arg-cyclo(Glu-Dab-D-Phe(3-CF3)-Arg-Trp-Orn)-NH2] | 0.95 nM | 8 nM | 16% | 0.4 nM | 93%
CC(=O)N[C@@H](CCCNC(=N)N)C(=O)N[C@H]1CCC(=O)NCCC[C@@H](C(N)=O)NC(=O)[C@H](Cc2c[nH]c3ccccc23)NC(=O)[C@H](CCCNC(=N)N)NC(=O)[C@@H](Cc2ccc(C)cc2C)NC(=O)[C@H](CCN)NC1=O [Example 21, Ac-Arg-cyclo(Glu-Dab-D-Phe(2,4-diMe)-Arg-Trp-Orn)-NH2] | 0.085 nM |  | 8% | 0.5 nM | 97%
